Reference: patent US6812010B1, “Method for enzymatic preparation of homogentisate” (Aventis Cropscience SA, priority 1997, dated 2004)

How the values were obtained:
[1] = system: HPP-oxidase (protein extract from Arthrobacter globiformis); assay: HPP-oxidase activity assay with inhibition by an HPPD inhibitor (HPLC detection of HPA); assay type: biochemical; settings: 100 μM of HPPD inhibitor; 30° C., 5 min
Description: The cell pellet, which is approximately 3.4 g, is resuspended in 7 ml of extraction buffer (0.05 M potassium phosphate pH 7.5, 0.1 mM TPP, 0.1 mM MgCl2 and 5 mM mercaptoethanol) and sonicated twice at 23 kHz for 2.5 min. The resulting suspension is centrifuged at 44,000×g for 20 min. The harvested supernatant is again centrifuged at 100,000×g for 60 min. 0.7 ml of 2% protamine sulphate in the extraction buffer is added to the new 7-ml supernatant, followed by gentle stirring. The precipitate which forms is removed by a centrifugation at 20,000×g for 20 min. Ammonium sulphate is gradually added to the supernatant thus obtained so as to reach 60% saturation. This new preparation is stirred for 30 min., and the precipitate formed harvested by centrifugation at 20,000×g for 20 min. The pellet is redissolved in 0.5 ml of extraction buffer and aliquoted in 0.1-ml fractions, these fractions being kept at −80° C. before use.
The HPP-oxidase activity is measured in a 96-well microtitration plate with 200 μl of reaction per well consisting of […] of 67 mM sodium phosphate pH 7.4, 10 μl of 13.4 mM glutathione, 10 μl of 67 mM MgCl2, 10 μl of 26.7 mM TPP, 10 μl of 67 μM FAD, […] (i.e. approximately 6 μg) and 10 μl of 2.5 mM HPP. […]
The plate is then centrifuged at 2000 rpm for 15 min., and the supernatant is analysed by HPLC. […]

[2] = system: HPA-hydroxylase (protein extract from Pseudomonas acidovorans); assay: HPA-hydroxylase activity assay with inhibition by an HPPD inhibitor (HPLC detection of HMO); assay type: biochemical; settings: 100 μM of HPPD inhibitor; 30° C., 5 min
Description: The cell pellet, which is approximately 0.5 g, is resuspended in 1.5 ml of extraction buffer (0.1 M potassium phosphate pH 7.2, 1 mM DTE and 5 mM MgMgSO4) and sonicated twice at 23 kHz for 2.5 min. The resulting suspension is centrifuged at 44,000×g for 20 min. The harvested supernatant is again centrifuged at 100,000×g for 60 min. The new supernatant is aliquoted in 0.1-ml fractions, these fractions being kept at −80° C. before use. The HPA-hydroxylase activity is measured in a 96-well microtitration plate with 200 μl of reaction per well consisting of 150 μl of 0.1 M sodium phosphate fits pH 7.2, 10 μl of 20 mM DTE, 10 μl of 3 mM NADH, 15 μl of 67 μM FAD, 10 μl of protein (i.e. approximately 7 μg) and 5 μl of 10 mM HPA. When an assay for inhibition by an HPPD inhibitor is carried out, 2 μl of 10 mM 4-[4-trifluoromethyl-2-(methylsulphonyl)benzoyl]-5-cyclopropylisoxazole are added to a phosphate buffer containing 20% of DMSO. The reaction is initiated by adding the substrate, HPA; it takes place at 30° C. for 5 min. with stirring. The reaction is stopped by adding 33 μl of 25% perchloric acid. The plate is then centrifuged at 2000 rpm for 15 min., and the supernatant is analysed by HPLC. 10 μl of the supernatant is injected onto a Spherisorb ODS2 column equilibrated with buffer A (5.5% acetonitrile, 0.1% TFA) at the flow rate of 1.5 ml/min. The detection is carried out at 292 nm. […]

Which results are given for `CS(=O)(=O)c1cc(C(F)(F)F)ccc1C(=O)c1cnoc1C1CC1` [HPPD inhibitor, 4-[4-trifluoromethyl-2-(methylsulphonyl)benzoyl]-5-cyclopropylisoxazole]?
inhibition of the enzyme transforming HPP into HPA [1]: not inhibited; inhibition of the enzyme transforming HPA into HMO [2]: not inhibited
